Test results from ChEMBL document CHEMBL3784938, “Novel heterocyclic ring-fused oleanolic acid derivatives as osteoclast inhibitors for osteoporosis” (Medchemcomm, 2016).
The source made the active and inactive calls. The rule behind the calls is not given here.

Legend:
[1] = tested on: RAW264.7; assay: Downregulation of RANKL-induced c-Fos protein expression in mouse RAW264.7 cells at 5 uM after 2 days by Western blot analysis; type: functional, cell-based
[2] = tested on: Rattus norvegicus; assay: Toxicity in ovariectomy rat model assessed as undeveloped endometrial gland at 0.1 to 10 mg/kg/day, po administered for 4 weeks by haematoxylin/eosin staining based microscopy; type: organism-based; details: in vivo, 672 h
[3] = tested on: RAW264.7; assay: Downregulation of RANKL-induced c-Fos mRNA expression in mouse RAW264.7 cells at 1 to 5 uM after 2 days by RT-qPCR analysis; type: functional, cell-based
[4] = tested on: RAW264.7; assay: Downregulation of RANKL-induced CathK mRNA expression in mouse RAW264.7 cells at 1 to 5 uM after 4 days by RT-qPCR analysis; type: functional, cell-based
[5] = tested on: RAW264.7; assay: Antiosteoclast activity in mouse RAW264.7 cells assessed as inhibition of RANKL-induced osteoclast differentiation at 2 uM after 5 days by TRAP assay; type: functional; details: RAW264.7, 120 h
[6] = Cytotoxicity against mouse RAW264.7 cells assessed as inhibition of cell viability at 5 uM after 24 hrs by MTT assay; type: cell-based; details: read-out: INH
[7] = tested on: Rattus norvegicus; assay: Antiosteoporotic effect in ovariectomy rat model assessed as increase in bone mineral density of lumbar spine L3 to L5 at 10 mg/kg/day, po administered for 4 weeks by dual-energy X-ray absorptiometry relative to control; type: functional, organism-based
[8] = tested on: RAW264.7; assay: Downregulation of RANKL-induced NFATc1 protein expression in mouse RAW264.7 cells at 5 uM after 2 days by Western blot analysis; type: functional, cell-based
[9] = tested on: RAW264.7; assay: Downregulation of RANKL-induced TRAP mRNA expression in mouse RAW264.7 cells at 1 to 5 uM after 4 days by RT-qPCR analysis; type: functional, cell-based
[10] = tested on: RAW264.7; assay: Antiosteoclast activity in mouse RAW264.7 cells assessed as reduction in multinucleated osteoclasts at 2 to 20 uM after 5 days by TRAP assay; type: functional, cell-based
[11] = tested on: RAW264.7; assay: Downregulation of RANKL-induced NFATc1 mRNA expression in mouse RAW264.7 cells at 5 uM after 2 days by RT-qPCR analysis; type: functional, cell-based
[12] = Cytotoxicity against mouse RAW264.7 cells assessed as inhibition of cell viability at 10 uM after 24 hrs by MTT assay; type: cell-based; details: read-out: INH
[13] = Cytotoxicity against mouse RAW264.7 cells assessed as inhibition of cell viability at 2 uM after 24 hrs by MTT assay; type: cell-based; details: read-out: INH
[14] = Cytotoxicity against mouse RAW264.7 cells assessed as inhibition of cell viability at 20 uM after 24 hrs by MTT assay; type: cell-based; details: read-out: INH
[15] = tested on: RAW264.7; assay: Antiosteoclast activity in mouse RAW264.7 cells assessed as inhibition of RANKL-induced osteoclast differentiation at 20 uM after 5 days by TRAP assay; type: functional; details: RAW264.7, 120 h
[16] = tested on: RAW264.7; assay: cells; details: Mus musculus, RAW264.7, 120 h
Description: Antiosteoclast activity in mouse RAW264.7 cells assessed as inhibition of RANKL-induced osteoclast differentiation after 5 days by TRAP assay

[17] = tested on: RAW264.7; assay: Downregulation of RANKL-induced CTR mRNA expression in mouse RAW264.7 cells at 1 to 5 uM after 4 days by RT-qPCR analysis; type: functional, cell-based
[18] = tested on: Rattus norvegicus; assay: Toxicity in ovariectomy rat model assessed as undeveloped endometrial luminal epithelium at 0.1 to 10 mg/kg/day, po administered for 4 weeks by haematoxylin/eosin staining based microscopy; type: organism-based; details: in vivo, 672 h
[19] = tested on: Rattus norvegicus; assay: Antiosteoporotic effect in ovariectomy rat model assessed as increase in bone mineral density of lumbar spine L3 to L5 at 0.1 mg/kg/day, po administered for 4 weeks by dual-energy X-ray absorptiometry relative to control; type: functional, organism-based
[20] = tested on: Rattus norvegicus; assay: Antiosteoporotic effect in ovariectomy rat model assessed as increase in bone mineral density of lumbar spine L3 to L5 at 1 mg/kg/day, po administered for 4 weeks by dual-energy X-ray absorptiometry relative to control; type: functional, organism-based
[21] = tested on: Rattus norvegicus; assay: Toxicity in ovariectomy rat model assessed as reduction in uterine weight at 0.1 to 10 mg/kg/day, po administered for 4 weeks; type: organism-based; details: in vivo, 672 h

IC50 [16]: 0.024 µM
Compound: COc1ccc(S(=O)(=O)n2cc3c(n2)C(C)(C)[C@@H]2CC[C@]4(C)[C@H](CC=C5[C@@H]6CC(C)(C)CC[C@]6(C(=O)NC6CCN(Cc7ccccc7)CC6)CC[C@]54C)[C@@]2(C)C3)cc1
inhibition [1]: Active
Activity [2]: Non-toxic
inhibition [3]: Active
inhibition [4]: Active
inhibition at 2 µM [5]: 90%
cytotoxicity at 24 h, 5 µM [6]: 0%
Activity [7]: Active
inhibition [8]: Active
inhibition [9]: Active
inhibition [10]: Active
inhibition [11]: Active
cytotoxicity at 24 h, 10 µM [12]: 6.6%
cytotoxicity at 24 h, 2 µM [13]: 0%
cytotoxicity at 24 h, 20 µM [14]: 58.2%
inhibition at 20 µM [15]: 100%
inhibition [17]: Active
Activity [18]: Non-toxic
Activity [19]: inactive
Activity [20]: Active
Activity [21]: Non-toxic
